The text below walks through data of patent US20090306133A1, “New Acetyl Coenzyme A Carboxylase (ACC) Inhibitors And Uses In Treatments Of Obesity And Diabetes Mellitus - 087” (ASTRAZENECA AB, priority 2007, published 2009).

A value given as a limit tells only on which side of the number the result lay.

In general, IC50 refers to the concentration that gives 50% inhibition.

Experiment [1] addresses Human recombinant Acetyl-CoA Carboxylase 2 (ACC2) (Homo sapiens, UniProt O00763). The experiment can be described thus: Assay Y: ACC2 inhibition, inorganic phosphate (Malachite Green). Type of experiment: biochemical. The note with it: Assay Y: room temperature, 3 hr, 15 min preincubation. The procedure, abridged:
(§1)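 Enzyme preincubated with compound 15 min before substrate addition; reaction run 3 h, then phosphate detected with Malachite Green at 670 nm after 10 min at room temperature. Triplicate 10-point titrations; IC50 by non-linear four-parameter curve fitting.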

For experiment [2], the target named is Human recombinant Acetyl-CoA Carboxylase 1 (ACC1) (Homo sapiens, UniProt Q13085). The experiment can be described thus: Assay Y: ACC1 inhibition, inorganic phosphate (Malachite Green). The conditions noted are these: Assay Y: room temperature, 3 hr, 15 min preincubation. Type of experiment: biochemical. Put shortly: as §1

Human recombinant Acetyl-CoA Carboxylase 2 (ACC2), sequence (O00763 whole entry): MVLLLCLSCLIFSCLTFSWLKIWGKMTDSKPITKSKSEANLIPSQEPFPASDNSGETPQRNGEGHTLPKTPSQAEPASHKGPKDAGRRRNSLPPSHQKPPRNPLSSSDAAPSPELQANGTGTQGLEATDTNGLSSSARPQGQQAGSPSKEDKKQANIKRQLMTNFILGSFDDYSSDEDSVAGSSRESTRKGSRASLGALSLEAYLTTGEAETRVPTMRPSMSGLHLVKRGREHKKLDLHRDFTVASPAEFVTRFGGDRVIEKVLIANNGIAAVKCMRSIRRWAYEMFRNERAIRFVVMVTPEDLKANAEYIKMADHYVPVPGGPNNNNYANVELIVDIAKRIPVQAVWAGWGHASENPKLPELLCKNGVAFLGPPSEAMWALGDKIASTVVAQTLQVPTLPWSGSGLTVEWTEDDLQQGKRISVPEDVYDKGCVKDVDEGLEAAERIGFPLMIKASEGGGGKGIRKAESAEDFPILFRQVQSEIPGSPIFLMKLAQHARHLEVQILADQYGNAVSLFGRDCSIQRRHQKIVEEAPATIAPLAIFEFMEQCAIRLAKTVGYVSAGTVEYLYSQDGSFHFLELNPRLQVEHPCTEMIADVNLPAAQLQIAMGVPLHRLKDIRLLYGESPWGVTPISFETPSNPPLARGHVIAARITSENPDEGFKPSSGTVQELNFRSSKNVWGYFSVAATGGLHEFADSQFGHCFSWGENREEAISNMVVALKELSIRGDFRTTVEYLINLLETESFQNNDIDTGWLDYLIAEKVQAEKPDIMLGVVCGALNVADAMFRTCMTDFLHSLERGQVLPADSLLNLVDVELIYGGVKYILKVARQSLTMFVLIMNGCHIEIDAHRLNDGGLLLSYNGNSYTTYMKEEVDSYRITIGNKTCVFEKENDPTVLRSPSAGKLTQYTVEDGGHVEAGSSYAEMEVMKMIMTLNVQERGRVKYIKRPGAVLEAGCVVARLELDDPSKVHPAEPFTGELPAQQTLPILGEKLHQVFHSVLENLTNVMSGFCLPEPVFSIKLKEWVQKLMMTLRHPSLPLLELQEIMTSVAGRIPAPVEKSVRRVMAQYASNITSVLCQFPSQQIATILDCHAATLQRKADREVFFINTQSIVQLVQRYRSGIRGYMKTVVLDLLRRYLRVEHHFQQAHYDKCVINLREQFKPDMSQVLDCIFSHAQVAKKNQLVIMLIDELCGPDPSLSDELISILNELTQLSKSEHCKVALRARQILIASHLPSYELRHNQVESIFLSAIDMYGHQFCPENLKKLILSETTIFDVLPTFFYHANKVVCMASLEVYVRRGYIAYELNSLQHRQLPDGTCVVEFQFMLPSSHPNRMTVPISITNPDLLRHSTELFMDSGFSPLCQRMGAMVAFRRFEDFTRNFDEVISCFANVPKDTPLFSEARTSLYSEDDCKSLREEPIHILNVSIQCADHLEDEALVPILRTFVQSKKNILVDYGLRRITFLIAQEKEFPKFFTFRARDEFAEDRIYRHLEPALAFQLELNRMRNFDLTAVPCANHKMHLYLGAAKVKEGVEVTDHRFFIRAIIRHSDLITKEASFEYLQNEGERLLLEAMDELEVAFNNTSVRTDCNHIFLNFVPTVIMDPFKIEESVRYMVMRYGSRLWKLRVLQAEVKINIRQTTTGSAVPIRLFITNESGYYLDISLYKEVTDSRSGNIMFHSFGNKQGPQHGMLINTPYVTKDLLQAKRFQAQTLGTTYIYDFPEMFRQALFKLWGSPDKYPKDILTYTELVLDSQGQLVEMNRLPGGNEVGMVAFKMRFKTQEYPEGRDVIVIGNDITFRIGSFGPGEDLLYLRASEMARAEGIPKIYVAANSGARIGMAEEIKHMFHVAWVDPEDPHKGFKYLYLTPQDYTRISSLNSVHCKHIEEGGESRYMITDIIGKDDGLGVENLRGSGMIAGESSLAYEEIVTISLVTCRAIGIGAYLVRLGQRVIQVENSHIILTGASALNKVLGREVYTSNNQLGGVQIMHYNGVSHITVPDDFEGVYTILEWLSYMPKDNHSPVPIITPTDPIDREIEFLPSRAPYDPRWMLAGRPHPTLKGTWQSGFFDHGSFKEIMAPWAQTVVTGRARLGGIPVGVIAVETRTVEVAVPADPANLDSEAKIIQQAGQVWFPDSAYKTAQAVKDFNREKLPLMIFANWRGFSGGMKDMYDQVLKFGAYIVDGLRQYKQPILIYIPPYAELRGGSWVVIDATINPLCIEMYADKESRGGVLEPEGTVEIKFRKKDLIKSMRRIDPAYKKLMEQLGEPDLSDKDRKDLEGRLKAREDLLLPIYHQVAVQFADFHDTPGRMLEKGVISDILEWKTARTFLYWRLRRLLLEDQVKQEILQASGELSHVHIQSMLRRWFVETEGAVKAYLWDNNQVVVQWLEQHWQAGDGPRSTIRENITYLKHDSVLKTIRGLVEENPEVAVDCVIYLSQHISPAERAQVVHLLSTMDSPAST

As to `CC(=O)N1CCN(CCCOc2cc(C(=O)NC[C@H]3CC[C@H](CNC(=O)OC(C)(C)C)CC3)c3ccccc3n2)CC1` [Example 183, tert-Butyl[(trans-4-{[({2-[3-(4-acetylpiperazin-1-yl)propoxy]quinolin-4-yl}carbonyl)amino]-methyl}cyclohexyl)-methyl]carbamate], the results for the IC50 in experiment [1] and in experiment [2] were 1260 nM and > 20000 nM, respectively.
With `CC(C)(C)OC(=O)NC[C@H]1CC[C@H](CNC(=O)c2cc(-c3ccc(C(F)(F)F)cc3)nc3ccccc23)CC1` [Example 12, tert-Butyl [(trans-4-{[({2-[4-(trifluoromethyl)phenyl]quinolin-4-yl}carbonyl)amino]-methyl}cyclohexyl)methyl]carbamate], the IC50 was 560 nM in experiment [1] and > 20000 nM in experiment [2].
On to `CC(C)(C)OC(=O)NC[C@H]1CC[C@H](CNS(=O)(=O)c2ccc3ncsc3c2)CC1` [Example 78, tert-Butyl [(trans-4-{[(1,3-benzothiazol-6-ylsulfonyl)amino]methyl}cyclohexyl)-methyl]carbamate], for which the IC50 in experiment [1] was determined as 3140 nM; in experiment [2], 6550 nM.
Take `CC(C)(C)OC(=O)NC[C@H]1CC[C@H](CNC(=O)c2cc(-c3cccc(C(N)=O)c3)nc3ccccc23)CC1` [Example 8, tert-Butyl ({trans-4-[({[2-(3-carbamoylphenyl)quinolin-4-yl]carbonyl}amino)methyl]-cyclohexyl}methyl)carbamate]: the 50% inhibitory concentration (IC50) in experiment [1] was determined as 80 nM; in experiment [2], 310 nM.
The like results for `CCOC(=O)NC[C@H]1CC[C@H](CNC(=O)c2cc(-c3cccc(OC)c3)nc3ccccc23)CC1` [Example 27, Ethyl ({trans-4-[({[2-(3-methoxyphenyl)quinolin-4-yl]carbonyl}amino)methyl]cyclo-hexyl}methyl)carbamate] were, in that order, 1180 nM and 3590 nM.
As to `CC(C)(C)OC(=O)NC[C@H]1CC[C@H](CNC(=O)c2cc(N3CCC(CO)CC3)nc3ccccc23)CC1` [Example 188, tert-Butyl[(trans-4-{[({2-[4-(hydroxymethyl)-piperidin-1-yl]quinolin-4-yl}carbonyl)amino]-methyl}cyclohexyl)-methyl]carbamate], the IC50 in experiment [1] came out at 270 nM; in experiment [2], 5640 nM.
For `CC(C)(C)OC(=O)NC[C@H]1CC[C@H](CNC(=O)c2cc(-c3ccc(CCN)cc3)nc3ccccc23)CC1` [Example 102, tert-Butyl [(trans-4-{[({2-[4-(2-aminoethyl)phenyl]quinolin-4-yl}carbonyl)amino]-methyl}cyclohexyl)methyl]carbamate], the concentration for half-maximal inhibition (IC50) in experiment [1] was determined as 20 nM; in experiment [2], 170 nM.
In the same order, the values of `CC(C)(C)OC(=O)NC[C@H]1CC[C@H](CNC(=O)c2cc(-c3ccccc3)nc3ccccc23)CC1` [Example 6, tert-butyl {[trans-4-({[(2-phenylquinolin-4-yl)carbonyl]amino}methyl)cyclohexyl]methyl}carbamate] are 240 nM and 560 nM.
For `CC(C)(C)OC(=O)NC[C@H]1CC[C@H](CNC(=O)c2cc(-c3ccc(CNC(N)=O)cc3)nc3ccccc23)CC1` [Example 105, tert-Butyl {[trans-4-({[(2-{4-[(carbamoylamino)methyl]phenyl}quinolin-4-yl)carbonyl]amino}methyl)cyclohexyl]methyl}carbamate], the concentration for half-maximal inhibition (IC50) in experiment [1] is 30 nM; in experiment [2], 110 nM.
For the compound `CN(C)CCCOc1cc(C(=O)NC[C@H]2CC[C@H](CNC(=O)OC(C)(C)C)CC2)c2ccccc2n1` [Example 181, tert-Butyl[(trans-4-{[({2-[3-(dimethylamino)-propoxy]quinolin-4-yl}carbonyl)amino]-methyl}cyclohexyl)-methyl]carbamate], the IC50 in experiment [1] came to 1340 nM; in experiment [2], 12300 nM.
The like results for `CC(C)(C)OC(=O)NC[C@H]1CC[C@H](CNC(=O)c2cncc(-c3ccccc3)c2)CC1` [Example 44, tert-Butyl {[trans-4-({[(5-phenylpyridin-3-yl)carbonyl]amino}methyl)cyclohexyl]-methyl}carbamate] were, in that order, 9710 nM and 13000 nM.
Turning to `CC(C)(C)OC(=O)NC[C@H]1CC[C@H](CNS(=O)(=O)c2ccc(-c3ccno3)s2)CC1` [Example 72, tert-Butyl {[trans-4-({[(5-isoxazol-5-yl-2-thienyl)sulfonyl]amino}methyl)cyclo-hexyl]methyl}carbamate], the values for the IC50 in experiment [1] and in experiment [2] were 2480 nM and > 20000 nM, respectively.
On to `CCCCN(C[C@H]1CC[C@H](CNC(=O)OC(C)(C)C)CC1)S(=O)(=O)c1ccc2ccccc2c1` [Example 85, tert-Butyl [(trans-4-{[butyl(2-naphthylsulfonyl)amino]methyl}cyclohexyl)methyl]-carbamate], for which the IC50 is 6690 nM in experiment [1] and > 20000 nM in experiment [2].
As for `Cc1cc(C(=O)NC[C@H]2CC[C@H](CNC(=O)OC(C)(C)C)CC2)cc(-c2ccc(CN)cc2)n1` [Example 38, tert-Butyl ({trans-4-[({2-[4-(aminomethyl)phenyl]-6-methylisonicotinoyl}amino)-methyl]cyclohexyl}methyl)carbamate], the IC50 in experiment [1] is 4050 nM; in experiment [2], 5440 nM.
As to `CN(C)CCN1CCN(c2cc(C(=O)NC[C@H]3CC[C@H](CNC(=O)OC(C)(C)C)CC3)c3ccccc3n2)CC1` [Example 186, tert-Butyl{[trans-4-({[(2-{4-[2-(dimethylamino)ethyl]-piperazin-1-yl}quinolin-4-yl)carbonyl]amino}-methyl)cyclohexyl]-methyl}carbamate], the IC50 is 140 nM in experiment [1] and 2220 nM in experiment [2].
For `CCOC(=O)NC[C@H]1CC[C@H](CNC(=O)c2cc(-c3ccc(N4CCN(C)CC4)nc3)nc3ccccc23)CC1` [Example 119, Ethyl[(trans-4-{[({2-[6-(4-methylpiperazin-1-yl)pyridin-3-yl]quinolin-4-yl}carbonyl)amino]methyl}cyclohexyl)methyl]carbamate], the IC50 in experiment [1] amounted to 720 nM; in experiment [2], 2260 nM.
Take `CCOC(=O)NC[C@H]1CC[C@H](CNS(=O)(=O)c2ccc3ccccc3c2)CC1` [Example 54, Ethyl [(trans-4-{[(2-naphthylsulfonyl)amino]methyl}cyclohexyl)methyl]carbamate]: the IC50 in experiment [1] is 3990 nM; in experiment [2] it was > 20000 nM.
For `COCCOC(=O)NC[C@H]1CC[C@H](CNC(=O)c2cc(-c3ccncc3)nc3ccccc23)CC1` [Example 59, 2-Methoxyethyl {[trans-4-({[(2-pyridin-4-ylquinolin-4-yl)carbonyl]amino}-methyl)cyclohexyl]methyl}carbamate], the IC50 in experiment [1] is 4670 nM; in experiment [2], > 20000 nM.
As to `CC(=O)N1CCN(c2ccc(-c3cc(C(=O)NC[C@H]4CC[C@H](CNC(=O)OC(C)(C)C)CC4)c4ccccc4n3)cn2)CC1` [Example 142, tert-Butyl [(trans-4-{[({2-[6-(4-acetylpiperazin-1-yl)pyridin-3-yl]quinolin-4-yl}carbonyl)amino]methyl}cyclohexyl)methyl]carbamate], the IC50 in experiment [1] is 130 nM; in experiment [2] it was > 20000 nM.
Consider `CC(C)(C)OC(=O)NC[C@H]1CC[C@H](CNC(=O)c2ccnc(-c3ccccc3)c2)CC1` [Example 41, tert-Butyl [(trans-4-{[(2-phenylisonicotinoyl)amino]methyl}cyclohexyl)methyl]-carbamate], for which the IC50 in experiment [1] was 4540 nM; in experiment [2] it was 6630 nM.
As to `CC(C)(C)OC(=O)NC[C@H]1CC[C@H](CNC(=O)c2cc(-c3ccc(CN)cc3)ncc2Cl)CC1` [Example 37, tert-Butyl ({trans-4-[({2-[4-(aminomethyl)phenyl]-5-chloroisonicotinoyl}amino)-methyl]cyclohexyl}methyl)carbamate], the IC50 in experiment [1] was found to be 470 nM; in experiment [2] it was 3690 nM.
Turning to `CC(C)(C)OC(=O)NC[C@H]1CC[C@H](CNC(=O)c2cc(-c3ccc(F)cc3)nc3ccccc23)CC1` [Example 14, tert-Butyl ({trans-4-[({[2-(4-fluorophenyl)quinolin-4-yl]carbonyl}amino)methyl]-cyclohexyl}methyl)carbamate], the IC50 in experiment [1] is 180 nM; in experiment [2], 690 nM.
In the same order, the values of `CN1CCC(OC(=O)NC[C@H]2CC[C@H](CNC(=O)c3cc(-c4ccc(N5CCN(C)CC5)nc4)nc4ccccc34)CC2)CC1` [Example 110, 1-Methylpiperidin-4-yl-[(trans-4-{[({2-[6-(4-methylpiperazin-1-yl)pyridin-3-yl]quinolin-4-yl}carbonyl)amino]methyl}cyclohexyl)methyl]carbamate] are 4370 nM and > 20000 nM.
`O=C(NC[C@H]1CC[C@H](CNC(=O)c2cc(-c3ccncc3)nc3ccccc23)CC1)OC1CCCC1` [Example 56, Cyclopentyl {[trans-4-({[(2-pyridin-4-ylquinolin-4-yl)carbonyl]amino}methyl)cyclo-hexyl]methyl}carbamate]: the values for the IC50 in experiment [1] and in experiment [2] were 400 nM and 1210 nM, respectively.
For `CC(C)(C)OC(=O)NC[C@H]1CC[C@H](CNC(=O)c2cc(-c3cccc(CN)c3)nc3ccccc23)CC1` [Example 39, tert-Butyl [(trans-4-{[({2-[3-(aminomethyl)phenyl]quinolin-4-yl}carbonyl)amino]-methyl}cyclohexyl)methyl]carbamate], the IC50 in experiment [1] was 20 nM; in experiment [2] it was 220 nM.
On to `CCN(C[C@H]1CC[C@H](CNC(=O)OC(C)(C)C)CC1)S(=O)(=O)c1ccc2ccccc2c1` [Example 79, tert-Butyl [(trans-4-{[ethyl(2-naphthylsulfonyl)amino]methyl}cyclohexyl)methyl]-carbamate], for which the IC50 in experiment [1] was 5400 nM; in experiment [2], > 20000 nM.
Regarding `CC(C)(C)OC(=O)NC[C@H]1CC[C@H](CNC(=O)c2cc(-c3ccc(CC(=O)O)cc3)nc3ccccc23)CC1` [Example 107, [4-(4-{[(trans-4-{[(tert-Butoxycarbonyl)amino]methyl}cyclohexyl)methyl]-carbamoyl}quinolin-2-yl)phenyl]acetic Acid], the results for the IC50 in experiment [1] and in experiment [2] were 210 nM and 2620 nM, respectively.
